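Five compound concentrations were applied to cells in 96-well plates for 48 hours; endpoints were derived by simple linear interpolation of the resulting dose-response curve. TGI denotes the concentration required for complete inhibition of growth.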
Columns and labels:
Experiment in all cases: NCI-60 cell line screen, 48 h
A549 NSCLC = tested on: A549 NSCLC
PC-3 prostate = tested on: PC-3 prostate
A498 renal = tested on: A498 renal
CCRF-CEM leukemia = tested on: CCRF-CEM leukemia
SN12C renal = tested on: SN12C renal
ACHN renal = tested on: ACHN renal
KM12 colon = tested on: KM12 colon
NCI/ADR-RES ovarian = tested on: NCI/ADR-RES ovarian
K-562 leukemia = tested on: K-562 leukemia
SW-620 colon = tested on: SW-620 colon
NCI-H23 lung = tested on: NCI-H23 lung
SK-MEL-2 melanoma = tested on: SK-MEL-2 melanoma
MOLT-4 leukemia = tested on: MOLT-4 leukemia
SF-539 CNS = tested on: SF-539 CNS
NCI-H226 lung = tested on: NCI-H226 lung
LOX IMVI melanoma = tested on: LOX IMVI melanoma
UACC-257 melanoma = tested on: UACC-257 melanoma

SMILES | TGI (A549 NSCLC) | TGI (PC-3 prostate) | TGI (A498 renal) | TGI (CCRF-CEM leukemia) | TGI (SN12C renal) | TGI (ACHN renal) | TGI (KM12 colon) | TGI (NCI/ADR-RES ovarian) | TGI (K-562 leukemia) | TGI (SW-620 colon) | TGI (NCI-H23 lung) | TGI (SK-MEL-2 melanoma) | TGI (MOLT-4 leukemia) | TGI (SF-539 CNS) | TGI (NCI-H226 lung) | TGI (LOX IMVI melanoma) | TGI (UACC-257 melanoma)
CC(=O)OCc1cccc(O)c1C(=O)CCC=C(C)C | > 100 µM | > 100 µM | > 100 µM | > 100 µM | > 100 µM | > 100 µM | > 100 µM | > 100 µM | > 100 µM | > 100 µM | > 100 µM | > 100 µM | > 100 µM | > 100 µM | > 100 µM | > 100 µM | > 100 µM
CCOC(=O)N1CC2(C(=O)OC)C=CC1C(C(=O)OC)C2 (configuration not stated) | > 100 µM | > 100 µM | > 100 µM | > 100 µM | > 100 µM | > 100 µM | > 100 µM | > 100 µM | > 100 µM | > 100 µM | > 100 µM | > 100 µM | > 100 µM | > 100 µM | > 100 µM | > 100 µM | > 100 µM
Cc1c(C)c(S(=O)(=O)N(CCCCCN)OCCCN)c(C)c2c1OC(C)(C)CC2 | > 100 µM | 18 µM | 40.9 µM | > 23.5 µM | > 100 µM | 39 µM | 8.93 µM | 41.7 µM | > 59.7 µM | > 40.2 µM | 33 µM | 11.2 µM | 48.5 µM | > 100 µM | 32.7 µM | > 44.4 µM | 38.6 µM
Oc1ccc(-c2c3ccccc3c(-c3ccc(OCCBr)cc3)c3ccccc23)cc1 | 69.1 µM | 73.2 µM | 40 µM | > 100 µM | 59.9 µM | 90.7 µM | 83.6 µM | 75.6 µM | 97.4 µM | > 100 µM | 34.9 µM | 63.5 µM | > 100 µM | 32.4 µM | 54.5 µM | 38.9 µM | 54.5 µM
O=C(O)CN1CCNCCN(CC(=O)O)CCNCC1 | > 100 µM | > 100 µM | > 100 µM | > 100 µM | > 100 µM | > 100 µM | > 100 µM | > 100 µM | > 100 µM | > 100 µM | > 100 µM | > 100 µM | > 100 µM | > 100 µM | > 100 µM | > 100 µM | > 100 µM
COc1cc(C2SCC(=O)N2c2ccc(-c3ccc(-n4c(-c5ccccc5)nc5ccccc5c4=O)cc3)cc2)ccc1O (configuration not stated) | > 100 µM | > 100 µM | > 100 µM | > 100 µM | > 100 µM | > 100 µM | > 100 µM | > 100 µM | > 100 µM | > 100 µM | > 100 µM | > 100 µM | > 100 µM | > 100 µM | > 100 µM | > 100 µM | > 100 µM
COc1ccc(-c2nc(N)c(C#N)c3c2CCSc2ccc(C)cc2-3)cc1OC | > 100 µM | > 100 µM | > 63.2 µM | 23.6 µM | 44.4 µM | > 73.9 µM | 34.2 µM | > 58 µM | 13.7 µM | > 100 µM | > 61 µM | > 75.6 µM | 25.1 µM | 58.9 µM | > 70.9 µM | > 50.2 µM | > 76.2 µM
O=C(CC(=O)N(C(=O)c1ccccc1)c1ccc(Cl)cc1)N/N=C\c1ccccc1O | > 100 µM | > 100 µM | > 100 µM | > 100 µM | > 100 µM | > 100 µM | > 100 µM | > 100 µM | > 100 µM | > 100 µM | > 100 µM | > 100 µM | > 100 µM | > 100 µM | > 100 µM | > 100 µM | > 100 µM
CC(Oc1ccccc1)C(=O)NN (configuration not stated) | > 100 µM | > 100 µM | > 100 µM | > 100 µM | > 100 µM | > 100 µM | > 100 µM | > 100 µM | > 100 µM | > 100 µM | > 100 µM | > 100 µM | > 100 µM | > 100 µM | > 100 µM | > 100 µM | > 100 µM
COc1ccc(OC)c(C2CCCc3c2cnc2nc(N)nc(N)c32)c1 (configuration not stated) | > 100 µM | > 100 µM | > 100 µM | > 100 µM | > 100 µM | > 100 µM | > 100 µM | > 100 µM | > 100 µM | > 100 µM | > 100 µM | > 100 µM | > 100 µM | > 100 µM | > 100 µM | > 100 µM | > 100 µM
CC1(C)CC(=O)C(CC(C(=O)C(=O)Nc2cc(C(F)(F)F)ccc2Cl)C(=O)c2ccco2)C(=O)C1 (configuration not stated) | > 100 µM | > 100 µM | > 100 µM | > 100 µM | > 100 µM | > 100 µM | > 100 µM | > 100 µM | > 100 µM | > 100 µM | > 100 µM | > 100 µM | > 100 µM | > 100 µM | > 100 µM | > 100 µM | > 100 µM
